Results published in patent publication US20260125421A1, “ANTIVIRAL COMPOUNDS” (Hoffmann-La Roche Inc., priority 2022, published 2026).

What was measured:
Experiment in all cases: biochemical
MERS-CoV 3CL^pro = MERS-CoV 3CL^pro (Middle East respiratory syndrome-related coronavirus, UniProt K9N7C7)
SARS-CoV-2 3CL^pro = molecular target: T1, SARS-CoV-2 3CL^pro (Severe acute respiratory syndrome coronavirus 2, UniProt P0DTD1)
T1 construct: […]; made in house; host or cells: Escherichia coli

SARS-CoV 3CL^pro = SARS-CoV 3CL^pro (Severe acute respiratory syndrome coronavirus, UniProt P0C6X7)
HCoV-229E 3CL^pro = molecular target: T2, HCoV-229E 3CL^pro (Human coronavirus 229E, UniProt P0C6X1)
T2 construct: […]; made in house; host or cells: E. coli BL21 (DE3)
T2 sequence (P0C6X1 2966-3267): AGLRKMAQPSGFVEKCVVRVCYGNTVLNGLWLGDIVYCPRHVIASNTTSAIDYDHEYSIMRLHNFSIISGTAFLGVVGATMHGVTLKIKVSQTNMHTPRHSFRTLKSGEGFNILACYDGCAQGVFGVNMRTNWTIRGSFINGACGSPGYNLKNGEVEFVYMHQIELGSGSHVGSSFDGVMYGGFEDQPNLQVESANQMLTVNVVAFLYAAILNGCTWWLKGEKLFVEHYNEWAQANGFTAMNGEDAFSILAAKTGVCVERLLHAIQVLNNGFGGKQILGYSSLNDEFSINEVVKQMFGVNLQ

Sequence of MERS-CoV 3CL^pro (K9N7C7 3248-3553): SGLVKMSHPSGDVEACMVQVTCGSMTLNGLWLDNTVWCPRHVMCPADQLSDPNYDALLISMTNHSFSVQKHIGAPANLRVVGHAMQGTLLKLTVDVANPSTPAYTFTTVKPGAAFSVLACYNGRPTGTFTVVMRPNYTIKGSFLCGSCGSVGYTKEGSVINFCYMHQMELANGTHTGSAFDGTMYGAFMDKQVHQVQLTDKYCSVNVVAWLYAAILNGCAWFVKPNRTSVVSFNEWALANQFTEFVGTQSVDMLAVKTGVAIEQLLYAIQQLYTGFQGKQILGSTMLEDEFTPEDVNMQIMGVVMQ

Row | Structure (SMILES) | IC50 (MERS-CoV 3CL^pro) [nM] | IC50 (SARS-CoV-2 3CL^pro) [nM] | IC50 (SARS-CoV 3CL^pro) [nM] | IC50 (HCoV-229E 3CL^pro) [nM]
1 | CC1(C)C[C@@H](CN(NC(=O)[C@@H]2[C@@H]3[C@H](CN2C(=O)[C@@H](NC(=O)[C@H](F)Cl)C(C)(C)C)C3(C)C)C(=O)[C@H](F)Cl)C(=O)N1 [Example 20] | 1070 | 24 | 32 | 2020
2 | CC1(C)C[C@@H](CN(NC(=O)[C@@H]2[C@H]3CCC[C@H]3CN2C(=O)[C@@H](NC(=O)C(F)F)C(C)(C)C)C(=O)[C@@H](F)Cl)C(=O)N1 [Example 6, N-[(1S)-1-[(3S,3aS,6aR)-3-[[[(2S)-2-chloro-2-fluoro-acetyl]-[[(3S)-5,5-dimethyl-2-oxo-pyrrolidin-3-yl]methyl]amino]carbamoyl]-3,3a,4,5,6,6a-hexahydro-1H-cyclopenta[c]pyrrole-2-carbonyl]-2,2-dimethyl-propyl]-2,2-difluoro-acetamide] | 2950 | 30 | 41 | > 10000
3 | CC(C)(C)[C@H](NC(=O)[C@@H]1CC1(F)F)C(=O)N1C[C@@H]2CCC[C@@H]2[C@H]1C(=O)NN(C[C@H]1C(=O)N[C@@H]2C[C@@H]21)C(=O)[C@H](F)Cl [Example 35, (1S)-N-[(1S)-1-[(3S,3aS,6aR)-3-[[[(2R)-2-chloro-2-fluoro-acetyl]-[[(1R,4S,5R)-3-oxo-2-azabicyclo[3.1.0]hexan-4-yl]methyl]amino]carbamoyl]-3,3a,4,5,6,6a-hexahydro-1H-cyclopenta[c]pyrrole-2-carbonyl]-2,2-dimethyl-propyl]-2,2-difluoro-cyclopropanecarboxamide] | 117 | 10 | 7 | 41
4 | CCC(CC)[C@H](NC(=O)C(F)F)C(=O)N1C[C@@H]2CCC[C@@H]2[C@H]1C(=O)NN(C[C@H]1CC(C)(C)NC1=O)C(=O)[C@@H](F)Cl [Example 18, N-[(1S)-1-[(3S,3aS,6aR)-3-[[[(2S)-2-chloro-2-fluoro-acetyl]-[[(3R)-5,5-dimethyl-2-oxo-pyrrolidin-3-yl]methyl]amino]carbamoyl]-3,3a,4,5,6,6a-hexahydro-1H-cyclopenta[c]pyrrole-2-carbonyl]-2-ethyl-butyl]-2,2-difluoro-acetamide] | 345 | 12 | 23 | 332
5 | CC[C@H](C)[C@H](NC(=O)C1(F)CC1)C(=O)N1C[C@H]2[C@@H]([C@H]1C(=O)NN(C[C@H]1CC(C)(C)NC1=O)C(=O)[C@@H](F)Cl)C2(C)C [Example 19, N-[(1S,2S)-1-[(1R,2S,5S)-2-[[[(2S)-2-chloro-2-fluoro-acetyl]-[[(3R)-5,5-dimethyl-2-oxo-pyrrolidin-3-yl]methyl]amino]carbamoyl]-6,6-dimethyl-3-azabicyclo[3.1.0]hexane-3-carbonyl]-2-methyl-butyl]-1-fluoro-cyclopropanecarboxamide] | 553 | 19 | 32 | 834
6 | C[C@@H]1C[C@@H](CN(NC(=O)[C@@H]2[C@@H]3[C@H](CN2C(=O)[C@@H](NC(=O)[C@@H]2CC2(F)F)C(C)(C)C)C3(C)C)C(=O)[C@@H](F)Cl)C(=O)N1 [Example 34, (1S)-N-[(1S)-1-[(1R,2S,5S)-2-[[[(2S)-2-chloro-2-fluoro-acetyl]-[[(3S,5R)-5-methyl-2-oxo-pyrrolidin-3-yl]methyl]amino]carbamoyl]-6,6-dimethyl-3-azabicyclo[3.1.0]hexane-3-carbonyl]-2,2-dimethyl-propyl]-2,2-difluoro-cyclopropanecarboxamide] | 80 | 8 | 14 | 37
7 | C[C@@H]1C[C@H](CN(NC(=O)[C@@H]2[C@H]3CCC[C@H]3CN2C(=O)[C@@H](NC(=O)[C@@H]2CC2(F)F)C(C)(C)C)C(=O)[C@@H](F)Cl)C(=O)N1 [Example 29, (1S)-N-[(1S)-1-[(3S,3aS,6aR)-3-[[[(2S)-2-chloro-2-fluoro-acetyl]-[[(3R,5R)-5-methyl-2-oxo-pyrrolidin-3-yl]methyl]amino]carbamoyl]-3,3a,4,5,6,6a-hexahydro-1H-cyclopenta[c]pyrrole-2-carbonyl]-2,2-dimethyl-propyl]-2,2-difluoro-cyclopropanecarboxamide] | 344 | 36 | 93 | 233
8 | CCC(CC)[C@H](NC(=O)[C@@H](F)Cl)C(=O)N1C[C@@H]2CCC[C@@H]2[C@H]1C(=O)NN(C[C@@H]1CC(C)(C)NC1=O)C(=O)[C@@H](F)Cl [Example 13, (2S)-N-[(1S)-1-[(3S,3aS,6aR)-3-[[[(2S)-2-chloro-2-fluoro-acetyl]-[[(3S)-5,5-dimethyl-2-oxo-pyrrolidin-3-yl]methyl]amino]carbamoyl]-3,3a,4,5,6,6a-hexahydro-1H-cyclopenta[c]pyrrole-2-carbonyl]-2-ethyl-butyl]-2-chloro-2-fluoro-acetamide] | 263 | 9 | 11 | 401
9 | CC1(C)C[C@@H](CN(NC(=O)[C@@H]2[C@H]3CCC[C@H]3CN2C(=O)[C@@H](NC(=O)[C@@H](F)Cl)C(C)(C)C)C(=O)[C@H](F)Cl)C(=O)N1 [Example 15, (2S)-N-[(1S)-1-[(3S,3aS,6aR)-3-[[[(2R)-2-chloro-2-fluoro-acetyl]-[[(3S)-5,5-dimethyl-2-oxo-pyrrolidin-3-yl]methyl]amino]carbamoyl]-3,3a,4,5,6,6a-hexahydro-1H-cyclopenta[c]pyrrole-2-carbonyl]-2,2-dimethyl-propyl]-2-chloro-2-fluoro-acetamide] | 488 | 11 | 12 | 589
10 | CC1(C)C[C@H](CN(NC(=O)[C@@H]2[C@H]3CCC[C@H]3CN2C(=O)[C@@H](NC(=O)C(F)F)C(C)(C)C)C(=O)[C@H](F)Cl)C(=O)N1 [Example 10, N-[(1S)-1-[(3S,3aS,6aR)-3-[[[(2R)-2-chloro-2-fluoro-acetyl]-[[(3R)-5,5-dimethyl-2-oxo-pyrrolidin-3-yl]methyl]amino]carbamoyl]-3,3a,4,5,6,6a-hexahydro-1H-cyclopenta[c]pyrrole-2-carbonyl]-2,2-dimethyl-propyl]-2,2-difluoro-acetamide] | 794 | 31 | 53 | 3040
11 | CC1(C)C[C@H](CN(NC(=O)[C@@H]2[C@@H]3[C@H](CN2C(=O)[C@@H](NC(=O)[C@@H]2CC2(F)F)C(C)(C)C)C3(C)C)C(=O)[C@H](F)Cl)C(=O)N1 [Example 24, (1S)-N-[(1S)-1-[(1R,2S,5S)-2-[[[(2R)-2-chloro-2-fluoro-acetyl]-[[(3R)-5,5-dimethyl-2-oxo-pyrrolidin-3-yl]methyl]amino]carbamoyl]-6,6-dimethyl-3-azabicyclo[3.1.0]hexane-3-carbonyl]-2,2-dimethyl-propyl]-2,2-difluoro-cyclopropanecarboxamide] | 1400 | 87 | 177 | 2250
